The test system of data set [1] is RET mutant TT, MZ-CRC-1, TPC-1, and Lc-2/ad human cancer cells. As to the kind of experiment: Cell growth curves, RET mutant human cancer cells taken together. The following applies: range over TT, MZ-CRC-1, TPC-1, Lc-2/ad, read-out: IC50, proliferation of RET mutant human cancer cells. It counts as cell-based. On the procedure:
(§1) The IC50 dose for all human RET-negative cells was >100.0 nM, confirming compound selectivity (Figure S8 and Table S4).
(§2) Nthy-ory-3-1 (10000 per well), TPC-1 (10000 per well), MZ-CRC-1 (100000 per well), TT (200000 per well), Lc-2/ad (100000 per well), BCPAP (10000 per well), 8505-C (10000 per well), PC-9 (10000 per well), A549 (10000 per well), CALU-1 (10000 per well), NIH3T3 RET/C634Y (10000 per well), and NIH3T3 HRAS/G12V (10000 per well) were seeded in six-well tissue culture plates. Cells were kept in 2% (TPC-1), 5% (Nthy-ori-3-1), or 10% (BCPAP, 8505-C, CALU-1, A549, PC-9, TT, MZ-CRC-1, and Lc-2/ad) fetal calf serum or in 2% (NIH3T3 RET/C634Y and HRAS/G12V) calf serum. Ba/F3 cells (200000 per well in 2 mL) were seeded in six-well tissue culture plates and kept in 10% fetal calf serum. The day after plating, different concentrations of the drug or vehicle were added to the medium and changed every 2–3 days. Cells were counted every day (Ba/F3), every 2 days (fibroblasts), or every 2–3 days (human cell lines). To compare cell growth, we performed an unpaired Student’s t test using the Instat software program (Graphpad Software Inc.). […] IC50 doses were calculated through a curve fitting analysis from last day of growth curves using the PRISM software program (Graphpad Software Inc.).

The subject of data set [2] is RET and VEGFR2 in NIH3T3 RET/C634Y tumours. The data set is described as follows: In vivo target (RET and VEGFR2) inhibition, Western blot of established tumours. The arrangement: species or system mouse. As to conditions: 3 mg/kg/day p.o. for 2 days, harvested 3 h after last dose. On the procedure:
In vivo target (RET and VEGFR2) inhibition was studied by treating animals grafted with NIH3T3 RET/C634Y cells at different doses (0.3, 1, or 3 mg/kg/day p.o.) of NPA101.3 for 2 days and then performing Western blot analysis on protein extracts. […] Then, to determine antitumorigenic activity and to better distinguish RET- and VEGFR2-mediated effects, we tested NPA101.3 in nude mice transplanted with NIH3T3 cells transformed by either RET/C634Y or HRAS/G12V. Before tumors appeared, animals were treated daily with NPA101.3 (1.0, 3.0, or 10.0 mg/kg/day) or left untreated. […] Still, VEGFR2 inhibition was detected also in RAS-driven tumors, an effect that might explain the, albeit reduced, effect of the drug on their growth (Figure S13). Importantly, as predicted, no trace of NPA101.3 demethyl metabolites was detected after 1 or 4 h from oral dosing in mice (Figure S14).
Supplementary Figure S11: In vivo target inhibition of NPA101.3 in nude mice implanted with cells transformed by RET/C634Y […] NIH3T3 RET/C634Y cells (2 x 105) were inoculated subcutaneously into the right and left dorsal portions of nude mice. When tumours reached approximately ~200 mm 3, mice (2 mice/dose) were treated by oral gavage with 3 doses (0, 24, 48 h) of the compound (0.3, 1 and 3 mg/Kg) or left untreated (NT); proteins were harvested 3 h after the last dose. […]
For orientation: A western blot detects proteins with antibodies after separation by electrophoresis.

Data set [3] relates to RET (either transfected or endogenously expressing) mutant cells. The data set is described as follows: Growth inhibition, all RET mutant cells (summary). The class given is cell-based. The following applies: range over transfected and endogenously expressing cells; read-out: IC50, growth inhibitory effect on RET mutant cells. On the procedure:
Finally, NPA101.3 featured efficacy already at 1 mg/kg/day in RET-driven tumors in nude mice. […] Therefore, though in a therapeutic setting toxicity may be increased by hitting multiple targets, it is feasible that the activity of the NPA101.3 against RET-driven tumors may take advantage of a synergistic combination of cell autonomous (on tumor cell growth mediated by RET inhibition) and non-cell autonomous (on blood vessel formation mediated by VEGFR2 inhibition) effects, potentiating its effect and reducing the chances of resistance development. Several TKIs with anti-RET activity are available, and some are already registered for the treatment of different types of thyroid cancers. […]
Nthy-ory-3-1 (10000 per well), TPC-1 (10000 per well), MZ-CRC-1 (100000 per well), TT (200000 per well), Lc-2/ad (100000 per well), BCPAP (10000 per well), 8505-C (10000 per well), PC-9 (10000 per well), A549 (10000 per well), CALU-1 (10000 per well), NIH3T3 RET/C634Y (10000 per well), and NIH3T3 HRAS/G12V (10000 per well) were seeded in six-well tissue culture plates. […] Cells were counted every day (Ba/F3), every 2 days (fibroblasts), or every 2–3 days (human cell lines). […] IC50 doses were calculated through a curve fitting analysis from last day of growth curves using the PRISM software program (Graphpad Software Inc.).

The test system of another data set is human RET-negative cells. The data set is described as follows: Cell growth curves, human RET-negative cells taken together. The class given is cell-based. As to conditions: read-out: IC50 dose, all human RET-negative cells. On the procedure: as §1, §2
The next data set has as its target T1, hERG (Homo sapiens, UniProt Q12809).
T1 construct: host or cells: HEK293, tetracycline-inducible hERG
The data set is described as follows: hERG patch-clamp assay. It counts as cell-based. On the technique in general: The hERG channel carries a current that helps repolarise heart muscle cells.

T1 sequence (Q12809 whole entry): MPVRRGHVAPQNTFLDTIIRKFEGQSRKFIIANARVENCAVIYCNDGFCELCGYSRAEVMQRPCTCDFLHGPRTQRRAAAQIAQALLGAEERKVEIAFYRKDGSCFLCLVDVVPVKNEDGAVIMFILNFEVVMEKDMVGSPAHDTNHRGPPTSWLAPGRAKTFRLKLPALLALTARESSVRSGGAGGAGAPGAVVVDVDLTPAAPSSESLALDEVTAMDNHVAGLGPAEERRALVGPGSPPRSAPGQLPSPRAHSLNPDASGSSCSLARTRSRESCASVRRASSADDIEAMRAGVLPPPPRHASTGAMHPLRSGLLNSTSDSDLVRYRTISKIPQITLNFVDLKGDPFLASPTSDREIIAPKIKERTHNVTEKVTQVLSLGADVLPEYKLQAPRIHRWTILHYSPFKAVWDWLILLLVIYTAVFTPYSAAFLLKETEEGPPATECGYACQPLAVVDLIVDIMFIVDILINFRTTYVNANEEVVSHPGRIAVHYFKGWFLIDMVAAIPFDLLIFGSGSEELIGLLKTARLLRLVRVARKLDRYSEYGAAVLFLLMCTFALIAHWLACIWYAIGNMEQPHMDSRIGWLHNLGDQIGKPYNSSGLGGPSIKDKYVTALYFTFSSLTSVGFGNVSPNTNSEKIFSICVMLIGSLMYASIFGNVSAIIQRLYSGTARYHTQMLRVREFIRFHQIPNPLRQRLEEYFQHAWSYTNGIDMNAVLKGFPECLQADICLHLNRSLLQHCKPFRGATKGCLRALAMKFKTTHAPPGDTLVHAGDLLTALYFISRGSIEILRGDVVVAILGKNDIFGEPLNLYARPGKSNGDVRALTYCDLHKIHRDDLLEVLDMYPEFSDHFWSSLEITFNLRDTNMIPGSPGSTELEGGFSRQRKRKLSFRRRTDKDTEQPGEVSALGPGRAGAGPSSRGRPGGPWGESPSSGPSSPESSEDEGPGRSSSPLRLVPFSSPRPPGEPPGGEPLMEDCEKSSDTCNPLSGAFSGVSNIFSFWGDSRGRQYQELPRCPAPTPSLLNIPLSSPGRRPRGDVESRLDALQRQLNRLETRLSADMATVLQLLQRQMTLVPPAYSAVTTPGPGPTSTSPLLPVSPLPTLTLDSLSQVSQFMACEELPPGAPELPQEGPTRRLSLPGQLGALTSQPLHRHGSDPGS

For the compound `CC(C)(C)c1cc(NC(=O)Cc2ccc(-n3cnc4cc(-c5ccc(S(C)(=O)=O)cc5)ccc43)cc2)no1` [NPA101.3], the IC50 in data set [1] is 0.67 to 3.6 nM; in data set [3] it was 0.67 to 4.17 nM; in the data set on human RET-negative cells, more than 100 nM. The “RET autophosphorylation and signaling and VEGFR2 phosphorylation in tumours” value in data set [2] is “strongly inhibited”. Also, at hERG (hERG 7.57 μM vs RET 1 nM), the “hERG IC50 relative to RET IC50” value was more than 7000 fold. At hERG (human, HEK293 cells expressing inducible hERG, 0.1 µM), this compound registered an inhibition at 0.1 µM of 0.41%. In addition, testing at 1 µM at hERG (human, HEK293 cells expressing inducible hERG, 1 µM) gave an inhibition of 14.6%. For the same compound, at hERG (human, HEK293 cells expressing inducible hERG, 10 µM), 10 µM produced 55.9% inhibition.

As usually defined, the inhibition is how much of the control response was suppressed.

Values taken from paper PMC7901654, “Bioisosteric Discovery of NPA101.3, a Second-Generation RET/VEGFR2 Inhibitor Optimized for Single-Agent Polypharmacology” (Journal of Medicinal Chemistry, 2020).
